Columns and labels:
[1] = tested on: A549 lung carcinoma cell; assay: Cell viability, CCK-8 assay, A549; assay type: cell-based; settings: Homo sapiens; A549 cells, 72 hr treatment; read-out: IC50 (after 72 hr treatment) A549
Method: (§1) The human cancer cell line (A549 lung carcinoma cell, Hela adenocarcinoma cell, U266 myeloma cell) was obtained from American Type Culture Collection (Manassas, Va. USA) and maintained in complete medium [RPMI. 1640 supplemented with heat-inactivated 10% FBS (USP, Austin, Tex., USA) and with 1% antibiotic-antimycotic solution (USP, Austin, Tex., USA)]. The cells were maintained in a humidified atmosphere of 5% CO2 and 95% air at 37° C., and cultured in T75 Flask (Nalge Nune International, Naperville, Ind., USA).
(§2) Cell viability was measured by a cell counting kit (CCK-8 assay, Dojindo, Tokyo, Japan), and the experimental procedure is based on the manufacturer's manual. The cells were cultured into 96-well plates at a density of 2×10^4 cells/well for 24 hours, followed by the treatment of the compounds of the present invention at various concentrations. […] Louis, Mo., USA)) was added to each well, and plates were incubated for additional 2 hours at 37° C. The absorbance of each well at 450 nm was measured with a reference at 630 nm using a Bio-Tek model ELx800™ microplate reader (Bio-Tek Instruments, Inc., Winooski, Vt., USA). The percentage of cell viability was calculated by following Mathematical Equation 1. […]

[2] = target: T1, RAR-related orphan receptor α (RORα) (Homo sapiens, UniProt P35398); assay: Agonistic effect on RORα
T1 sequence (P35398 1-523): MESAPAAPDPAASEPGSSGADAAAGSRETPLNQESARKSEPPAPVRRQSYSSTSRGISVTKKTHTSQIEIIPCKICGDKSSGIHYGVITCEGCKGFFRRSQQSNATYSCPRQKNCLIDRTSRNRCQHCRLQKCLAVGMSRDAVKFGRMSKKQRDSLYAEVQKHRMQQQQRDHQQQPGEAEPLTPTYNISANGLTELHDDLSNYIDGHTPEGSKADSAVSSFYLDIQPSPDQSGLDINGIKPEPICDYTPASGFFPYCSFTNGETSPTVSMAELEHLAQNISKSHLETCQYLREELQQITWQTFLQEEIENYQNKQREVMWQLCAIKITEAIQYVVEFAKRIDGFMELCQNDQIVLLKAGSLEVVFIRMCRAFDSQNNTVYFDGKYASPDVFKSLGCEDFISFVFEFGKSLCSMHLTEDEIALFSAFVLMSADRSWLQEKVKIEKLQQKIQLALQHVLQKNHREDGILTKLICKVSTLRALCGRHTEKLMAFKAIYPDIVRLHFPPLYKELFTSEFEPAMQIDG

[3] = tested on: U266 myeloma cell; assay: Cell viability, CCK-8 assay, U266; assay type: cell-based; settings: Homo sapiens, U-266; U266 cells, 72 hr treatment; read-out: IC50 (after 72 hr treatment) U266
Method: as §1, §2

[4] = tested on: Hela adenocarcinoma cell; assay: Cell viability, CCK-8 assay, Hela; assay type: cell-based; settings: Homo sapiens; Hela cells, 72 hr treatment; read-out: IC50 (after 72 hr treatment) Hela
Method: as §1, §2

[5] = tested on: prostate specific antigen (PSA) as a target protein of androgen receptor; assay: Western blot of PSA expression in LNCaP cells (FIG. 1); assay type: cell-based; settings: LNCaP androgen-dependent human prostate cancer cell line; compared with bicalutamide
[6] = tested on: androgen receptor (AR) target gene; assay: RT-PCR of androgen receptor target gene mRNA (FIG. 2); assay type: cell-based

Row | IC50 [1] | agonistic effect of activating RORα [2] | IC50 [3] | IC50 [4] | mRNA amount of NK3 transcription factor related, locus 1 (NKX3-1) [6] | mRNA amount of kallikrein-related peptidase 2 (KLK2) [6] | mRNA amount of prostate specific antigen (PSA) [6] | SMILES | anticancer activity based on the expression amount of PSA (western blot) [5]
1 | 380 nM | agonistic effect | 460 nM | 450 nM |  |  |  | COc1ccc2c(c1O)OC(C)(C)C=C2c1ccc(Cl)cc1C [Compound 95] | 
2 |  |  |  |  | decreasing | decreasing | decreasing | O=C1C2C3=C(c4ccc(O)cc4OC34CCCC4)[C@@H](O)[C@H](c3ccccc3)C2C(=O)N1Cc1ccccc1 (some centres unmarked) [Compound 96] | almost analogous to that of bicalutamide
